The source made the active and inactive calls.
Key:
[1] = molecular target: T1, Voltage-gated N-type calcium channel alpha-1B subunit/Amyloid beta A4 precursor protein-binding family A member 1 (Homo sapiens, UniProt Q00975+Q02410); format: protein assay
[2] = molecular target: T1, Voltage-gated N-type calcium channel alpha-1B subunit/Amyloid beta A4 precursor protein-binding family A member 1; format: protein assay; remark: listed apart in the source
[3] = molecular target: Eukaryotic translation initiation factor 4E (Mus musculus, UniProt P63073); test: eIF4E–eIF4G protein interaction inhibitors, dose response, biochemical, TR-FRET (AID 855); format: functional;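 also: potency for disrupting eIF4E binding to eIF4GI seen as loss of FRET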
Cytochrome P450 3A4 = Cytochrome P450 3A4 (Homo sapiens, UniProt P08684); details: Potency;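 also: confirmatory qHTS run detecting inhibitors and substrates of CYP3A4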
[4] = molecular target: T2, DNA repair and recombination protein RAD54-like (Homo sapiens, UniProt Q92698); test: inhibitors of human RAD54 branch migration, confirmation, biochemical, fluorescence, cherry-picked samples, dose series (AID 651657); format: functional
T2 sequence (Q92698 whole entry): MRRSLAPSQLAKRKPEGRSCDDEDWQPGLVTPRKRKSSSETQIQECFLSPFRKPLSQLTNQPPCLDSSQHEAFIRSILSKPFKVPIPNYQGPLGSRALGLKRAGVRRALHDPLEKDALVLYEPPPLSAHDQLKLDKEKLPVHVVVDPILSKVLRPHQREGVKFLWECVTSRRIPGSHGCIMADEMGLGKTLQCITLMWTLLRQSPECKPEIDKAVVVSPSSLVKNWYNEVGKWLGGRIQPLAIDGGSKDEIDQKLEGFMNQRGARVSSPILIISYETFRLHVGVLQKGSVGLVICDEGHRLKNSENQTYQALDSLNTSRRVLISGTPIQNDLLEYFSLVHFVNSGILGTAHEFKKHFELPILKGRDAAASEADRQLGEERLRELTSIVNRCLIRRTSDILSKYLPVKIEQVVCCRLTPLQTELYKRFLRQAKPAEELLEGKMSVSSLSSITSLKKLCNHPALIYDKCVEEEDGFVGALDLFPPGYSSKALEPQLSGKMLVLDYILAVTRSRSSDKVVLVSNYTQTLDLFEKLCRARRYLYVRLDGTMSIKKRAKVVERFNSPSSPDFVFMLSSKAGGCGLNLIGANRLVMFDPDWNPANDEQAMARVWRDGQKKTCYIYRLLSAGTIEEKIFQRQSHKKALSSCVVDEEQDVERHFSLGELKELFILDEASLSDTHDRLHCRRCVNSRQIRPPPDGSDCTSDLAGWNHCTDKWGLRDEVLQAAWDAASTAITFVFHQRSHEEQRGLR

[5] = molecular target: DNA dC->dU-editing enzyme APOBEC-3G (Homo sapiens, UniProt Q9HC16); format: functional;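 also: Dose-response counterscreen measuring inhibition of APOBEC3G DNA deaminase activity, run while confirming APOBEC3A inhibitors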
[6] = molecular target: T3, Heat shock factor protein 1 (Mus musculus, UniProt P38532); test: HSF1 potentiators in luciferase reporter cells, confirmation, cell-based, NIH3T3, luminescence, dose retest (AID 435004); format: functional;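 also: stress induced by proteasome inhibitor MG132 added 30 min after compound; luciferase reporter driven by HSF1 response element in NIH3T3 cells; actives raise luminescence as potentiators of the MG132 stress response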
T3 sequence (P38532 whole entry): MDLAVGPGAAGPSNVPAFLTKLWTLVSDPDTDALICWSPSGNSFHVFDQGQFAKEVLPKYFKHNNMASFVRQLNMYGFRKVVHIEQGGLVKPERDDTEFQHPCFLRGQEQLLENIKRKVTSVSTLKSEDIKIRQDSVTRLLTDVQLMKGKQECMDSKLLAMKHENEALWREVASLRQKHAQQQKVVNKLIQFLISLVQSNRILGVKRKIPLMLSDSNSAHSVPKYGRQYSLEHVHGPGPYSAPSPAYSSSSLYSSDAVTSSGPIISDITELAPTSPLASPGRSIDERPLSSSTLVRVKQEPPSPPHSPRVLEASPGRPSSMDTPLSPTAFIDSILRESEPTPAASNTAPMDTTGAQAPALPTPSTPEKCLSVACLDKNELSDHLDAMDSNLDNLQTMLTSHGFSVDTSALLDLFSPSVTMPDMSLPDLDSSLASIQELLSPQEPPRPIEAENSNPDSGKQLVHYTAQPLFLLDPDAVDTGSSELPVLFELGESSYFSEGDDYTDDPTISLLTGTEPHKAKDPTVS

[7] = molecular target: DNA dC->dU-editing enzyme APOBEC-3A (Homo sapiens, UniProt P31941); test: Dose Response confirmation of small molecule APOBEC3A DNA Deaminase Inhibitors via a fluorescence-based single-stranded DNA deaminase assay. [Related pubchem assays (depositor defined):AID493011, AID493024]; format: functional
[8] = molecular target: Nucleotide-binding oligomerization domain-containing protein 2 (Homo sapiens, UniProt Q9HC29); test: NOD2 signaling inhibitors, cell-based, luminescence, uHTS, HEK293 (AID 1566); format: functional
Mu-type opioid receptor = Mu-type opioid receptor (Homo sapiens, UniProt P35372); test: (§1) Counterscreen for agonists of heterodimerization of the mu 1 (OPRM1) and delta 1 (OPRD1) opioid receptors: Luminescence-based cell-based high throughput dose response assay to identify agonists of OPRM1 homodimerization.; format: functional
[9] = molecular target: Delta-type opioid receptor (Homo sapiens, UniProt P41143); test: as §1, with “of OPRD1” for “of OPRM1”, “homodimerization. [Related pubchem assays (depositor defined):AID504326, AID504355, AID504692, AID504904, AID504905]” for “homodimerization.”; format: functional
[10] = molecular target: 5-hydroxytryptamine receptor 5A (Homo sapiens, UniProt P47898); test: Counterscreen for agonists of OPRM1-OPRD1 heterodimerization: luminescence-based cell-based high throughput dose response assay to identify agonists of 5-hydroxytryptamine (serotonin) 5A receptor (HTR5A). [Related pubchem assays (depositor defined):AID504326, AID504355, AID504692, AID504904, AID504905]; format: functional
HEK293 [11] = test: NOD2 signaling inhibitors in MDP-stimulated cells, cell-based, uHTS, luminescence (AID 2001); format: functional; details: Homo sapiens
HEK293 [12] = test: NOD1 signaling inhibitors, primary screen, cell-based, luminescence, uHTS (AID 1578); format: functional; details: Homo sapiens
HEK293 [13] = test: cells; format: functional, cell-based; details: Homo sapiens
HEK293 [14] = test: cells; format: functional, cell-based; details: Homo sapiens; remark: listed apart in the source
INS1 = test: beta cell apoptosis inhibitors, cytokine rescue, dose response, luminescence, retest (AID 449756); format: functional, cell-based; details: Rattus norvegicus;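 also: cell death triggered by IL-1 beta plus TNF-alpha plus IFN-gamma mixture; protective hits raise ATP signal compared with cytokine alone wells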
HEK293 [15] = test: cells; format: functional, cell-based; details: Homo sapiens; remark: listed apart in the source
[16] = molecular target: T4, Sentrin-specific protease 8 (Homo sapiens, UniProt Q96LD8); format: functional
T4 sequence (Q96LD8 whole entry): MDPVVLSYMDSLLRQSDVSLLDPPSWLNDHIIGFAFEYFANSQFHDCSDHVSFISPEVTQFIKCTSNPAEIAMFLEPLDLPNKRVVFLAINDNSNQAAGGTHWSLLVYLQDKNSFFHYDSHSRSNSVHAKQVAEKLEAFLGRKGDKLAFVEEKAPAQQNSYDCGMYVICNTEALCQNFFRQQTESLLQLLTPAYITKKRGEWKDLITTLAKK

[17] = molecular target: T4, Sentrin-specific protease 8; format: functional; remark: listed apart in the source
Nonstructural protein 1 = Nonstructural protein 1 (Influenza A virus, UniProt Q194T2); format: functional, Influenza A virus (A/California/07/2009(H1N1))
[18] = inhibitors of intracellular T. cruzi replication, confirmation, NIH3T3 host cells, beta-gal luminescence (AID 2044); format: functional, cell-based;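 also: intracellular parasites grown in NIH/3T3 mouse fibroblasts as host cells; luminescent beta-galactosidase reporter signal from transgenic T. cruzi replicating inside host cells; inhibitors lower the luminescence signal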
[19] = cytotoxicity toward NIH3T3 fibroblasts, dose response, counter-screen, cell-based, ATP luminescence, mouse fibroblasts (AID 2010); format: functional;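 also: cells exposed to compound for about 90 hours before reading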
[20] = molecular target: T5, Short transient receptor potential channel 4 (Mus musculus, UniProt Q9QUQ5); test: mouse TRPC4 channel activators, dose response, cell-based, HEK293 TRPC4/mu-opioid, Fluo-4 calcium (AID 434937); format: functional
T5 sequence (Q9QUQ5 whole entry): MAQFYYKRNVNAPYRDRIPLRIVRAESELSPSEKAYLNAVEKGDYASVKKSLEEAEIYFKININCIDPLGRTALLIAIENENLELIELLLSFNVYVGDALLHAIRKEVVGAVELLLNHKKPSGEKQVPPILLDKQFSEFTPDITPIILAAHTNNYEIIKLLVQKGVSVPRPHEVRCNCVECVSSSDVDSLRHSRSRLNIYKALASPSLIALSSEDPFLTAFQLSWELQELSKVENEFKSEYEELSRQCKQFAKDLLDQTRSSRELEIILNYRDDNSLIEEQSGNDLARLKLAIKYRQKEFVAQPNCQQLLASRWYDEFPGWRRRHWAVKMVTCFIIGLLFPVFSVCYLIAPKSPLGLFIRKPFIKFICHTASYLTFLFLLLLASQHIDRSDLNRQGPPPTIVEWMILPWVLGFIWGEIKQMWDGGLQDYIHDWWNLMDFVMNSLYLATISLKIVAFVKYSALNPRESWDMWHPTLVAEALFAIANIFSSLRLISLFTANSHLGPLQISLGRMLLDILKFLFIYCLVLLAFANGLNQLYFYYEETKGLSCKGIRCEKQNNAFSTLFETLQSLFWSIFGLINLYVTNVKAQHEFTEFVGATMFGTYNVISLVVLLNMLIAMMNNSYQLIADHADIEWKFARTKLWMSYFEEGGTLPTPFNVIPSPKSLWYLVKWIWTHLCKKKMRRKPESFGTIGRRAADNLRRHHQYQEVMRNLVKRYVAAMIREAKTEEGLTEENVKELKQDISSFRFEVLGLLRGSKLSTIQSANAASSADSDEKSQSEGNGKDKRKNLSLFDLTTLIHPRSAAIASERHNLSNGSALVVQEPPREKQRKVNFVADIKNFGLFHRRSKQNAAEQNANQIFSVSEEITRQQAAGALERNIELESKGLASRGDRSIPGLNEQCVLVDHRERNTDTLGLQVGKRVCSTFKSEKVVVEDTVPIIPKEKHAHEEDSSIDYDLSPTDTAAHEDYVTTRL

Mu-type opioid receptor, sequence (P35372 whole entry): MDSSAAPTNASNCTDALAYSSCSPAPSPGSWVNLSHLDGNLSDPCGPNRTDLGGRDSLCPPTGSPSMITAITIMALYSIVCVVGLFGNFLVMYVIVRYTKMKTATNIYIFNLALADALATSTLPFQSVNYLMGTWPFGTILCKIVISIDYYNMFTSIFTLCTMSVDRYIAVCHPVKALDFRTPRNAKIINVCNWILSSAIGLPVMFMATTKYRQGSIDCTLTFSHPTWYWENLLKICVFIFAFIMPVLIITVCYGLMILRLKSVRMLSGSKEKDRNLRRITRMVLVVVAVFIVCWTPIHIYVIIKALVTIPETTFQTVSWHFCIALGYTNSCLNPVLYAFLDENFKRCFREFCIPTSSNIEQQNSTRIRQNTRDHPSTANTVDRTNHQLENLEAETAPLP
T1 sequence (Q00975 whole entry): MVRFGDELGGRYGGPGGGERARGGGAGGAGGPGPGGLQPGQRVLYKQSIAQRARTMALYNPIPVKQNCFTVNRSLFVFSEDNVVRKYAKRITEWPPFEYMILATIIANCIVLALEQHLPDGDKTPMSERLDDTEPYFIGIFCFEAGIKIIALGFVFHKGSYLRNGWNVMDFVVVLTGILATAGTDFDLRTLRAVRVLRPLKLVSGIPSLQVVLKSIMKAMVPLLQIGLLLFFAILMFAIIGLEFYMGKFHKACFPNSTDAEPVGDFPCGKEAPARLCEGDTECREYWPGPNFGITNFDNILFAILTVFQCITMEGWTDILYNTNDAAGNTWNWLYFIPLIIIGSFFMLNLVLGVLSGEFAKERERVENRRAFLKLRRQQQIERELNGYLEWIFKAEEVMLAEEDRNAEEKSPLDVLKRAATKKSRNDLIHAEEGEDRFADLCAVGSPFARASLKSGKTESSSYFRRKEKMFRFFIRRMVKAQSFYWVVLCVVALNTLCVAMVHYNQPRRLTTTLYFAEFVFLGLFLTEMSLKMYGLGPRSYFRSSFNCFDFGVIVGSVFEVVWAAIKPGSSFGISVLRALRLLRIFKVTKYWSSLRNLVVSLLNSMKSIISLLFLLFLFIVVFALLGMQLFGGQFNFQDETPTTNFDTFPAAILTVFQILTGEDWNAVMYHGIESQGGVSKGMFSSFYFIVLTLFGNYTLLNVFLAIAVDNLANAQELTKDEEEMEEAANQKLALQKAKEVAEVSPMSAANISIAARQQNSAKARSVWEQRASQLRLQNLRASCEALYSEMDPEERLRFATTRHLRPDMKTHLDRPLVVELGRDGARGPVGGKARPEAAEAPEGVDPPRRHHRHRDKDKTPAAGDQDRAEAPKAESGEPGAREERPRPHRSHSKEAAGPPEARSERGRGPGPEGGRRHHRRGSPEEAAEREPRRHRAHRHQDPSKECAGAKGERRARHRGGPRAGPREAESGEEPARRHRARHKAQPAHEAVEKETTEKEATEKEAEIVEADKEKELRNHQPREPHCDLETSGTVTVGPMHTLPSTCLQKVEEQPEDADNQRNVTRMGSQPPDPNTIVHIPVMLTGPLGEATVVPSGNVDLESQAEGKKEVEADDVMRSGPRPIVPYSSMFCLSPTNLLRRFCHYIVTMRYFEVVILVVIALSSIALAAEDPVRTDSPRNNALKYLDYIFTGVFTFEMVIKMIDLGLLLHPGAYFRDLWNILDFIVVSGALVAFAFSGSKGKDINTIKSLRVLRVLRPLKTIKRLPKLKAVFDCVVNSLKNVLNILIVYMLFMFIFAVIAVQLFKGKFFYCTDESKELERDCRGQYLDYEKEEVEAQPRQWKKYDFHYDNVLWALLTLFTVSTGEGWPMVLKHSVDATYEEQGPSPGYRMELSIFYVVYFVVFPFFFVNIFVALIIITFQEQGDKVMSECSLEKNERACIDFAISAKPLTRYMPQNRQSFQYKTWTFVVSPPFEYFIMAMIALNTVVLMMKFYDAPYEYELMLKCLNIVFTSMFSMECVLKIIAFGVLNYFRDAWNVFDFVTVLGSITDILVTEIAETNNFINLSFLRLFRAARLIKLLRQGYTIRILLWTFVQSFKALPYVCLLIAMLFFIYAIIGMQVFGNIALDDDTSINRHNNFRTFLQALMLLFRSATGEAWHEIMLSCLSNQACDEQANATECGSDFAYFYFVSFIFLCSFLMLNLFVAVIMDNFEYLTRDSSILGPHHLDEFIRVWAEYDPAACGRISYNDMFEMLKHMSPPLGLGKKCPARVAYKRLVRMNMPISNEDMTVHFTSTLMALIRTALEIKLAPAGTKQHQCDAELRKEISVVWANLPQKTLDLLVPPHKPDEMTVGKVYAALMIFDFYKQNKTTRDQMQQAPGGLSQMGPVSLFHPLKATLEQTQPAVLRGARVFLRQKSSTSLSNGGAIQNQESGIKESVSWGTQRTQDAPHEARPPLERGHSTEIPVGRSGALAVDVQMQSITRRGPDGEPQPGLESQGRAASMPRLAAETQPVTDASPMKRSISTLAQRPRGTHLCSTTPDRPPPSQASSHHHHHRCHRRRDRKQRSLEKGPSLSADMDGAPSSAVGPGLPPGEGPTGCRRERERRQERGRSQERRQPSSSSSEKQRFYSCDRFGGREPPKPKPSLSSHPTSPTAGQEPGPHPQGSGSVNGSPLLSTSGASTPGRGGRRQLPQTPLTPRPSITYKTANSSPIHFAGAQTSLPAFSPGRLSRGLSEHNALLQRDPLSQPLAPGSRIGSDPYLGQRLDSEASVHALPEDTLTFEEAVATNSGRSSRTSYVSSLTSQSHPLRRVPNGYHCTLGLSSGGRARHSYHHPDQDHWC
T1 sequence (Q02410 whole entry): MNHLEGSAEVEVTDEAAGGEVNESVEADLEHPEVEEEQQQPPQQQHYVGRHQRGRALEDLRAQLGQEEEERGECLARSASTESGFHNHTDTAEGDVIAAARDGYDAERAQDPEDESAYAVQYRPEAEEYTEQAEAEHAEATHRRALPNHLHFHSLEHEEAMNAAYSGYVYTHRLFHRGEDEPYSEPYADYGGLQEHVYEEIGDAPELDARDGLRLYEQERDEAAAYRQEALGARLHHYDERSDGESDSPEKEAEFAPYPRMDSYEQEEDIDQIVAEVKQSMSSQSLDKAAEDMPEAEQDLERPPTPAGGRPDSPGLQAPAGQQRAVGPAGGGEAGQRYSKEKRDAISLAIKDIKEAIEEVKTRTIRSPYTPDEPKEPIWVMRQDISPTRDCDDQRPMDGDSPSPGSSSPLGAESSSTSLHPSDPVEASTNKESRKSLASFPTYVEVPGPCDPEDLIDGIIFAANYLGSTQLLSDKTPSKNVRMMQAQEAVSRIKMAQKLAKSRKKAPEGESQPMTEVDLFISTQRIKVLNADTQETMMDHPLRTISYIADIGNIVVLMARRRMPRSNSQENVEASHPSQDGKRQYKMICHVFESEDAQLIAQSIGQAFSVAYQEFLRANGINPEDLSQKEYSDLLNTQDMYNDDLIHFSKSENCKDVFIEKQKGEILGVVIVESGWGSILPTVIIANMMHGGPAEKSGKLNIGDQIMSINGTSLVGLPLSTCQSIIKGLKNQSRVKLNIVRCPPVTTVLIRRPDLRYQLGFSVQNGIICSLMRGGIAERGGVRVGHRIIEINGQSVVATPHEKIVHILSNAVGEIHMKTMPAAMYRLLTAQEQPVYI
Delta-type opioid receptor, sequence (P41143 whole entry): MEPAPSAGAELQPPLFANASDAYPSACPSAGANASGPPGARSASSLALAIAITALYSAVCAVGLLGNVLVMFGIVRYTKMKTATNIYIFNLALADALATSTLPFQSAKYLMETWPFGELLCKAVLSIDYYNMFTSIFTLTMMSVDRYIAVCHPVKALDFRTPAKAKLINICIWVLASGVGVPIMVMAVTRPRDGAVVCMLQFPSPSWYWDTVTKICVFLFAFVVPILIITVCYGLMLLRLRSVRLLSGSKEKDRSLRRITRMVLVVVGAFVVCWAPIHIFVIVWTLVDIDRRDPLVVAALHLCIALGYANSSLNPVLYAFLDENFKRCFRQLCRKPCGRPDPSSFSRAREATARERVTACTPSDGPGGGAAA
5-hydroxytryptamine receptor 5A, sequence (P47898 whole entry): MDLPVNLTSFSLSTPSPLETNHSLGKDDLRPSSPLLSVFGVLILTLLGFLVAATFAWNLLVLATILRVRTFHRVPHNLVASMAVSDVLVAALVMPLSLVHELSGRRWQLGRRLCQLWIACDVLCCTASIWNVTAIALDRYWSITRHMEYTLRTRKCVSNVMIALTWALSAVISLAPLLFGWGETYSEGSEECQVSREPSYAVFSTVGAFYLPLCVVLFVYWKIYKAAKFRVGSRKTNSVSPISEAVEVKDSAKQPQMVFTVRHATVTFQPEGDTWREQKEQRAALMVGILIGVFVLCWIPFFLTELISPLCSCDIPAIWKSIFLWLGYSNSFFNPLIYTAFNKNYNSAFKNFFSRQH
Cytochrome P450 3A4, sequence (P08684 whole entry): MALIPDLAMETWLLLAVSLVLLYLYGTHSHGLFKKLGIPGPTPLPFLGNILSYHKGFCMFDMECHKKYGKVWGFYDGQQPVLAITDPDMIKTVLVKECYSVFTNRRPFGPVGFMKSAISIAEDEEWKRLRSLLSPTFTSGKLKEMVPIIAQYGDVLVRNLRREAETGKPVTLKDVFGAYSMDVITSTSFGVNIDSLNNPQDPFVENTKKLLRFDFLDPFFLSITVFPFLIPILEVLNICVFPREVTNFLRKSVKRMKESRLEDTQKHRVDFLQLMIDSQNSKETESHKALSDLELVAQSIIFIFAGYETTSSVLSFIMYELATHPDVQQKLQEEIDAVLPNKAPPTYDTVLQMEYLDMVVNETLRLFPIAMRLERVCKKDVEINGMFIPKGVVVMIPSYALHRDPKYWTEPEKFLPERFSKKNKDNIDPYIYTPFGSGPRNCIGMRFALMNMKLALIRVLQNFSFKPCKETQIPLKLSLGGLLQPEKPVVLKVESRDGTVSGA
DNA dC->dU-editing enzyme APOBEC-3A, sequence (P31941 whole entry, the tested form may be a part): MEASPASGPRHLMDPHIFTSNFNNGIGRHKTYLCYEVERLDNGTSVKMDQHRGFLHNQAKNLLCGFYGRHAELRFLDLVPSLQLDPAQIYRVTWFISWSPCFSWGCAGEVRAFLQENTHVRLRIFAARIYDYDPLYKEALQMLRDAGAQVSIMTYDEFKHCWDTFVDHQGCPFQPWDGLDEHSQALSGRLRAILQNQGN

For `O=C(O)c1cc(-c2ccco2)nn1-c1ccc(Cl)cc1`, the IC50 [1] was 22.1 µM (active), the IC50 [2] was 5.13 µM (active) and the IC50 [3] was 50 µM (inactive).

In the case of `CCC1=C2CC[C@H]3C(=O)N(CC(=O)OC)C(=O)[C@H]3[C@H]2[C@@]2(C)C(=O)N(CC3CC3)C(=O)N2C1=O`, the AC50 (Cytochrome P450 3A4) was 7.94 µM (inconclusive).

In the case of `Cc1c(CN(C)C)c2c(n1C)C(=O)c1ccc(Br)cc1-2`, the AC50 [4] was 11.8 µM (active).

With `Cc1ccc(C)c(NC(=O)C2CC(O)CN2C(=O)Oc2ccccc2)c1` (stereo not drawn) the IC50 [5] was 10.4 µM (active), the EC50 [6] was > 260 µM (inactive) and the IC50 [7] was 10 µM (active).

In the case of `Cc1ccccc1/C=C/c1cc[n+](C)cc1`, the IC50 [5] was 3.38 µM (active) and the IC50 [7] was 2.33 µM (active).

With `C[C@H]1C[C@]2(O[C@@H]2C)C(=O)O[C@@H]2CCN(C)C/C=C(/COC(=O)[C@]1(C)O)C2=O` the AC50 (Cytochrome P450 3A4) was 25.1 µM (inconclusive).

In the case of `FC(F)(F)c1cnc(NNC(=S)Nc2ccccc2Cl)c(Cl)c1`, the EC50 [8] was 11 µM (active).

In the case of `CC(C)c1ccc(/C=C2\SC(=O)N(CC(=O)NC3CCS(=O)(=O)C3)C2=O)cc1` (stereo not drawn), the IC50 [1] was > 50 µM (inactive) and the IC50 [2] was 12.4 µM (active).

For `Cc1cc(C)nc(NC(=S)Nc2ccc(Br)cc2Cl)c1`, the IC50 [1] was > 50 µM (inactive) and the IC50 [2] was 5.57 µM (active).

For `Cc1ccc(N)cc1Cl`, the AC50 (Cytochrome P450 3A4) was 12.6 µM (inconclusive).

For `OCC1(CCc2ccccc2)CCN(Cc2ccccc2Cl)CC1`, the EC50 (Mu-type opioid receptor) was 67.6 µM (inactive), the EC50 [9] was > 92.4 µM (inactive) and the EC50 [10] was > 92.4 µM (inactive).

With `O=C(CSc1ccc(Cl)cc1)Nc1ccc(-c2nc3ccccc3[nH]2)cc1` the EC50 (Mu-type opioid receptor) was > 92.5 µM (inactive), the EC50 [9] was > 92.5 µM (inactive) and the EC50 [10] was > 92.5 µM (inactive).

In the case of `FC(F)(F)c1cnc(NN=C(S)Nc2ccccc2Cl)c(Cl)c1`, the IC50 (HEK293 [11]) was 6.98 µM (inactive), the EC50 (HEK293 [12]) was 6.06 µM (active) and the IC50 (HEK293 [13]) was 6.49 µM (active). For the same molecule, the IC50 (HEK293 [14]) was 15.1 µM (active), the AC50 (INS1) was 7.04 µM (active) and the IC50 (HEK293 [15]) was > 20 µM (inactive).

With `Cc1n[nH]c(O)c1C(c1c(C)n[nH]c1O)c1cn(Cc2ccc(F)cc2)c2ccccc12` the IC50 [16] was 6.07 µM (active), the IC50 [17] was 5.81 µM (active) and the IC50 (Nonstructural protein 1) was 47.2 µM (active).

For `CCOC(=O)C1(CCOc2ccccc2)CCN(Cc2cccn2-c2cccnc2)CC1`, the EC50 (Mu-type opioid receptor) was 17.5 µM (inactive), the EC50 [9] was > 92.5 µM (inactive) and the EC50 [10] was > 92.5 µM (inactive). For the same molecule, the EC50 [18] was 2.94 µM (active) and the EC50 [19] was > 30 µM (not active).

In the case of `CCCn1c(C)nc2c(NCCCCN(CC)CC)nc(C)nc21`, the AC50 (Cytochrome P450 3A4) was 20 µM (inconclusive).

With `CCC1(C)CC(CCNCc2ccc(N(C)C)cc2)(c2ccc(F)cc2)CCO1` (stereo not drawn) the EC50 (Mu-type opioid receptor) was 29.2 µM (inactive), the EC50 [9] was > 92.3 µM (inactive) and the EC50 [10] was > 92.3 µM (inactive). For the same molecule, the EC50 [20] was 5.96 µM (active).

In the case of `CCN(CC)c1ccc(S(=O)(=O)N2CCOCC2)cc1NC(=O)CN1CCc2ccccc2C1`, the IC50 (HEK293 [11]) was 11.5 µM (inactive), the EC50 (HEK293 [12]) was 10.5 µM (active) and the EC50 [8] was 11.5 µM (active). For the same molecule, the IC50 (HEK293 [13]) was 7.07 µM (active), the IC50 (HEK293 [14]) was > 20 µM (inactive) and the IC50 (HEK293 [15]) was > 20 µM (inactive).

Reference: ChEMBL document CHEMBL1201862, “PubChem BioAssay data set” (2004)
